The target in assay [1] is Phosphatidylinositol 4-phosphate 3-kinase C2 domain-containing subunit beta (Homo sapiens) (UniProt O00750). The assay can be described thus: Selectivity interaction (KinomeScan (DiscoverX)) EUB0000666a PIK3C2B. The following applies: at 10 µM.
Assay [2] addresses T1, Serine/threonine-protein kinase LATS1 (Homo sapiens) (UniProt O95835).
T1 sequence (whole entry): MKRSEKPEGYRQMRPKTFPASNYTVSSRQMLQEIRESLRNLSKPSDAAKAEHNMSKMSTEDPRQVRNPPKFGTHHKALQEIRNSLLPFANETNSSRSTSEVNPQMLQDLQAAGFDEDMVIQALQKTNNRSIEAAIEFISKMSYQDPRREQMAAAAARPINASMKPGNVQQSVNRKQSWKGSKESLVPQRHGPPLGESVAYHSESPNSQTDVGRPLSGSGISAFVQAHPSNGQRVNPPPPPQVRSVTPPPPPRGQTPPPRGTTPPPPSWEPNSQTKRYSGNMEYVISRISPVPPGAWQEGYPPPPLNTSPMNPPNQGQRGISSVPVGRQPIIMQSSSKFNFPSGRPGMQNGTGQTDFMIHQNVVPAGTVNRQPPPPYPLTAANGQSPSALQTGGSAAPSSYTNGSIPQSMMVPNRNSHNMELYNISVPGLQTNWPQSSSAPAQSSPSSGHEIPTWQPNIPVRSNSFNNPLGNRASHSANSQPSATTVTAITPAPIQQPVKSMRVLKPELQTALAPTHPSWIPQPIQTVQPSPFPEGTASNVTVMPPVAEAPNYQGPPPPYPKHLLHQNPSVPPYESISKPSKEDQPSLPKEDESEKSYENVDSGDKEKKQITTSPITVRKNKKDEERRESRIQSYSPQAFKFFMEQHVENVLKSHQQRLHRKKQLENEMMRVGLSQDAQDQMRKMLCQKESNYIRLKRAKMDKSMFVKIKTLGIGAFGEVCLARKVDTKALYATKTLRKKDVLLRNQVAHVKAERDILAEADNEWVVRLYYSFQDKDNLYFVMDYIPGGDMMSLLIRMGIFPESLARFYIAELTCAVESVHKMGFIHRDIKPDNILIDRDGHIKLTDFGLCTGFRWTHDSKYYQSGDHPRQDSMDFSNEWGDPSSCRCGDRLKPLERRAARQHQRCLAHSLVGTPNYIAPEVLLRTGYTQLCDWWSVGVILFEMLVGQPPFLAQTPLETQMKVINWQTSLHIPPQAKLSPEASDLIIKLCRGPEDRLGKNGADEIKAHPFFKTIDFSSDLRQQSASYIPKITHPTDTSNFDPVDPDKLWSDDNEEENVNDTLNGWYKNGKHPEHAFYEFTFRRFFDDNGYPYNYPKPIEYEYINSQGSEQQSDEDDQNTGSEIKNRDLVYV
The experiment in a line: Selectivity interaction (ActivX KiNativ screen (kinase selectivity in THP-1 cell lysates)) EUB0000639a LATS1. The class given is subcellular. The following applies: lysate, at 0.01 µM.

For assay [3], the target named is Mitogen-activated protein kinase kinase kinase 11 (Homo sapiens) (UniProt Q16584). The assay can be described thus: Selectivity interaction (KinomeScan (DiscoverX)) EUB0001049a MAP3K11. Conditions: at 1 µM.
The target of assay [4] is Vascular endothelial growth factor receptor 3 (Homo sapiens, UniProt P35916). The experiment in a line: Selectivity interaction (Upstate Kinase Profiler service (Millipore)) EUB0000056c FLT4. Conditions: at 1 µM.
The target in assay [5] is Dual specificity tyrosine-phosphorylation-regulated kinase 1A (Homo sapiens, UniProt Q13627). The experiment in a line: Selectivity interaction (KinomeScan (DiscoverX)) EUB0000655a DYRK1A. The following applies: at 10 µM.
Assay [6] has as its target T2, Cytoplasmic tyrosine-protein kinase BMX (Homo sapiens) (UniProt P51813).
T2 sequence (whole entry): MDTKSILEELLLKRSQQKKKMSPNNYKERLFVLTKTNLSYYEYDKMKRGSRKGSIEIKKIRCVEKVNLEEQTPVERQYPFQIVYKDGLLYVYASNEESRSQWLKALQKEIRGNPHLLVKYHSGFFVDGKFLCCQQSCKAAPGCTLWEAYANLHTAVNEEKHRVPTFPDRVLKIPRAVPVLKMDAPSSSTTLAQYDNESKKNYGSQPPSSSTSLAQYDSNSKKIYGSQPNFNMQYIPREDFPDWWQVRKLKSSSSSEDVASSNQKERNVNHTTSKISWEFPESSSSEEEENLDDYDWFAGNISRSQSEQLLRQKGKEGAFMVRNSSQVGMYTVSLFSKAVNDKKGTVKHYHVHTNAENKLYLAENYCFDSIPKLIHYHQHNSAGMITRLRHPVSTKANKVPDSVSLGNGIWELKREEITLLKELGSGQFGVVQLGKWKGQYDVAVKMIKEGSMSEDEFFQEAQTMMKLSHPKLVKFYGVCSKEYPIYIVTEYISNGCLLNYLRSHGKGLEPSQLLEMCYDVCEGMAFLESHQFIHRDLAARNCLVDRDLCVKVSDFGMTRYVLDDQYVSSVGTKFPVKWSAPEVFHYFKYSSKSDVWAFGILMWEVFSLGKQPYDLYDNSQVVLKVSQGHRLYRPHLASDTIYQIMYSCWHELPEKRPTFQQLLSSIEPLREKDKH
The experiment in a line: Selectivity interaction (Millipore kinase profiler) EUB0000124b BMX. The following applies: at 10 µM.

Sequence of Vascular endothelial growth factor receptor 3 (P35916 whole entry): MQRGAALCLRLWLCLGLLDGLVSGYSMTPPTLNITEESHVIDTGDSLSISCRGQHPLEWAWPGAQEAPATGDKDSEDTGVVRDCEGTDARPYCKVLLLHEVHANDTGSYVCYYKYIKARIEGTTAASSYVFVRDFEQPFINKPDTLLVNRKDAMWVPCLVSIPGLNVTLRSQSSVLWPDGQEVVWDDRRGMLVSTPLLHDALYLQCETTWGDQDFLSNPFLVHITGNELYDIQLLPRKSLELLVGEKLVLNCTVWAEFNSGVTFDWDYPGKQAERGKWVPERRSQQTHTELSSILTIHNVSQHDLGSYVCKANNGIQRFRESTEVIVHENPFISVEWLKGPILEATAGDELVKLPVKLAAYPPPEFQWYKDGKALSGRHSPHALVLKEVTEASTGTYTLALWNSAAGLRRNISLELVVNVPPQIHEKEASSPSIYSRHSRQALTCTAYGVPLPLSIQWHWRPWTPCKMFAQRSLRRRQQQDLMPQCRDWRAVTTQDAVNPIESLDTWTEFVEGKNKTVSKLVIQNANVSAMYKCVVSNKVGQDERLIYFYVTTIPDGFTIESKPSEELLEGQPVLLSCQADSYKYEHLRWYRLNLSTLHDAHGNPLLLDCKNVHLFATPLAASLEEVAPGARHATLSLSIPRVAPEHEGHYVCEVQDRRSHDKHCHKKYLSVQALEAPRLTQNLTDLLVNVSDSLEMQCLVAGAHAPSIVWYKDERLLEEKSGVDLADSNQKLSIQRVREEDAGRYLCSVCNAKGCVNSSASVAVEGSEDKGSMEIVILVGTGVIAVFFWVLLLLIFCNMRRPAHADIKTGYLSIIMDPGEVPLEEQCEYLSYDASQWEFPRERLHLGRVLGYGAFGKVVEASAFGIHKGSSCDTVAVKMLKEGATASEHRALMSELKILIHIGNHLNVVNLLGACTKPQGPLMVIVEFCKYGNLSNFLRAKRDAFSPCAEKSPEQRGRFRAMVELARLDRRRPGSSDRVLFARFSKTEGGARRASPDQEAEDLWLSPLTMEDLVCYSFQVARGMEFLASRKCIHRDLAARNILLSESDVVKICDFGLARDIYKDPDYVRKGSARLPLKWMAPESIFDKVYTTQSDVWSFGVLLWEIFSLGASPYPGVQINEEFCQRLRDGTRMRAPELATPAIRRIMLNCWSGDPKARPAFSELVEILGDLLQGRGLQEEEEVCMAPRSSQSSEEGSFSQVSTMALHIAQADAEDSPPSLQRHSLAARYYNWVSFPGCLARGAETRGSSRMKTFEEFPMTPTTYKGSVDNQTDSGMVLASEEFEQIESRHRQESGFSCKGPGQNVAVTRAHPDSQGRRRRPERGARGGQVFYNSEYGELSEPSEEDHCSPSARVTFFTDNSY
Sequence of Phosphatidylinositol 4-phosphate 3-kinase C2 domain-containing subunit beta (Homo sapiens) (O00750 whole entry, the tested form may be a part): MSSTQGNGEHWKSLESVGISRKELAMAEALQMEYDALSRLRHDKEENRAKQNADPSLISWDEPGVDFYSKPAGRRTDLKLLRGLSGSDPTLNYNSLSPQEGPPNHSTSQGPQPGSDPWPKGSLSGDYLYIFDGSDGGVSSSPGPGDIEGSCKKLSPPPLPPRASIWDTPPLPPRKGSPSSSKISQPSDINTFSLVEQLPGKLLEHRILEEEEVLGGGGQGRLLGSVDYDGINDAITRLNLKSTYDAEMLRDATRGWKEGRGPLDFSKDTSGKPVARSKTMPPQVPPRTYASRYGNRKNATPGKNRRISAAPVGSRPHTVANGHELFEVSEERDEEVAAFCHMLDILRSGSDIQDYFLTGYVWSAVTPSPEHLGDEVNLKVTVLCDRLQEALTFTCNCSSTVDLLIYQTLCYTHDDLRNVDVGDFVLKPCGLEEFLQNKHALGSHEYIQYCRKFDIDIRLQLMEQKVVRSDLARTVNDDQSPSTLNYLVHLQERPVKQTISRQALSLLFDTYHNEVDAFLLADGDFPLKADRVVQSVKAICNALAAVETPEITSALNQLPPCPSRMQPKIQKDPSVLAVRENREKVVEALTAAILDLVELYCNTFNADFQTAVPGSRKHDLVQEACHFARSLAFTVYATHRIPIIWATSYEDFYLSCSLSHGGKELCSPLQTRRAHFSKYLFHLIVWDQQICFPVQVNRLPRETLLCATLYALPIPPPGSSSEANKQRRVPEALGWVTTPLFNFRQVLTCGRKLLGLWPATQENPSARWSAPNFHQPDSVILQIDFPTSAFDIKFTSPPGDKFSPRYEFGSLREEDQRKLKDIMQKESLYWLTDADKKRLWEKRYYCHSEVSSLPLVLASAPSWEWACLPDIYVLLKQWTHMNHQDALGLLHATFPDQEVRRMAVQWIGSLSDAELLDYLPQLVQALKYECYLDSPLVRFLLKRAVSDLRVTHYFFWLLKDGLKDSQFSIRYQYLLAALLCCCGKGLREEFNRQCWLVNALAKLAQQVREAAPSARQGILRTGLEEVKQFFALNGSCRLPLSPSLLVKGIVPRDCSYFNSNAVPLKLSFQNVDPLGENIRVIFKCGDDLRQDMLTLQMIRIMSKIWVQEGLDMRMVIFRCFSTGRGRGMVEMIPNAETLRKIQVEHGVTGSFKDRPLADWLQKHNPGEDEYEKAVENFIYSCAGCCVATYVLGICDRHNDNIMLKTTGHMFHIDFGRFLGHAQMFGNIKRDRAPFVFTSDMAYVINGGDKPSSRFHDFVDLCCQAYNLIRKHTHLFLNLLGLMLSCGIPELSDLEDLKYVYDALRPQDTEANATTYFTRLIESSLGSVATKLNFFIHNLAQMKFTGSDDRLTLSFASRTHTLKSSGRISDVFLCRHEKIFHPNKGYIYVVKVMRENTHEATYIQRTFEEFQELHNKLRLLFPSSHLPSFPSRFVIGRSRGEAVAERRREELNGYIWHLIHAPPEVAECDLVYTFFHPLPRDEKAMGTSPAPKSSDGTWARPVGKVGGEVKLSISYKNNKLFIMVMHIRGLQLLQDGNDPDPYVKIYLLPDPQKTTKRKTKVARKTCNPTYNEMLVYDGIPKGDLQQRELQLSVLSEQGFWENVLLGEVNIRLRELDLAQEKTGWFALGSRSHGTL
Sequence of Mitogen-activated protein kinase kinase kinase 11 (Homo sapiens) (Q16584 whole entry, looked up): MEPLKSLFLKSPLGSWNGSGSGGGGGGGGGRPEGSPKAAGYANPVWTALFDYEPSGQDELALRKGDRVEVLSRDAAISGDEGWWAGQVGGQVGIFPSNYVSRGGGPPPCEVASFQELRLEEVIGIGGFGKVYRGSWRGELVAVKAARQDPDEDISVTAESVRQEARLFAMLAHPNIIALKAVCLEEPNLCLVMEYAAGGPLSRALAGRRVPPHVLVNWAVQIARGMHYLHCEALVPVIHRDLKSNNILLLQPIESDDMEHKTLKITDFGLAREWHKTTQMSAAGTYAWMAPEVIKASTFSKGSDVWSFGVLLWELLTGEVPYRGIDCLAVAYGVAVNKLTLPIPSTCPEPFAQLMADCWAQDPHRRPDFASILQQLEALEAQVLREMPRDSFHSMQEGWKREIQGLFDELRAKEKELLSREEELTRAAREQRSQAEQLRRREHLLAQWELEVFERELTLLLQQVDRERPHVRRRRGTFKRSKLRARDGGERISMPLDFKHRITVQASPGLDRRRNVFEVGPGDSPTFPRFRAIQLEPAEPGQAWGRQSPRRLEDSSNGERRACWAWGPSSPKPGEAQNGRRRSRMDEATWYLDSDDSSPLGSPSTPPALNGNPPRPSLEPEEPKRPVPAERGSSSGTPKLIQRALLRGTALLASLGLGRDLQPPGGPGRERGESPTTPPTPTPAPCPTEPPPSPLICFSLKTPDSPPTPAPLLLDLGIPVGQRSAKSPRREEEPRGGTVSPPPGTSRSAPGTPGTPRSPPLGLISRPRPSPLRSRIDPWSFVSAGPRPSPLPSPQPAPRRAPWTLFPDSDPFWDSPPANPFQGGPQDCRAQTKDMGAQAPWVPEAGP

Consider `O=C(NOC[C@H](O)CO)c1ccc(F)c(F)c1Nc1ccc(I)cc1F`, for which the % of control in assay [1] came out at 100%.

In assay [2], `CC[C@@H]1[C@H](F)C(=O)N[C@@H]1COc1nccc2cc(C(N)=O)c(OC)cc12` [ZIMLOVISERTIB] had a % of inhibition of 15.8%.

With `COc1cc(Nc2nc(C)cc(-c3cnn4nc(OC)ccc34)n2)cc(C(F)(F)F)c1`, the % of control in assay [3] came out at 79%.

In the case of `Cc1ccc(-c2ccc3c(ccc4sc5c(c43)NC[C@@H](C)NC5=O)n2)cn1`, in assay [4], the % of inhibition is 40%.

`CN(C)CCOc1ccc(-c2nc(-c3ccncc3)c(-c3ccc4c(c3)CC/C4=N\O)[nH]2)cc1` had a % of control in assay [5] of 94%.

In the case of `CC(=O)Nc1cccc(-n2c(=O)n(C3CC3)c(=O)c3c(Nc4ccc(I)cc4F)n(C)c(=O)c(C)c32)c1`, in assay [6], the % of control was determined as 93%.

The record behind these values is ChEMBL document CHEMBL5465560, “Selectivity Literature for EUbOPEN Chemogenomic Library” (2024).
